{"source": "patent US20060024234A1", "about": "“Protein markers for pharmaceuticals and related toxicity” (LARGE SCALE PROTEOMICS CORPORATION, A Division of Large …, priority 2000, published 2006)", "key": {"[1]": {"system": "rat liver proteins", "test": "Proteome analysis (2-D gel electrophoresis) of liver of rats fed antilipemic drugs at low and high dose for 7 days (Examples 1-3)", "type": "in vivo", "description": "(§1) The animals were guillotined after CO2 asphyxiation on the day following the last treatment. Liver samples (150 mg of the left apical lobe) were removed and flash frozen in liquid nitrogen and kept at −80° C. until analysis.\n(§2) The homogenates were centrifuged at 420,000×g at 22° C. for 30 min. […] The supernatant was removed, divided into four aliquots and stored at −80° C. until analysis.\n(§3) An Angelique™ computer-controlled gradient-casting system (Large Scale Biology Corporation, Rockville, Md.) was used to prepare the second-dimension SDS slab gels. […] Second-dimensional slab gels were run overnight at 160 V in cooled DALT tanks (10° C.) with buffer circulation and were taken out when the tracking dye reached the bottom of the gel. Following SDS electrophoresis, the slab gels were fixed overnight in 1.5 liters/10 gels of 50% ethanol/3% phosphoric acid and then washed three times for 30 min in 1.5 liters/10 gels of cold DI water. They were transferred to 1.5 liters/10 gels of 34% methanol/17% ammonium sulfate/3% phosphoric acid for one hour, and after the addition of one gram powdered Coomassie Blue G-250 the gels were stained for three days to achieve equilibrium intensity.\n(§4) Groupwise statistical comparisons were made to search for treatment-related protein abundance changes.\n(§5) For these experiments, only pharmaceutical grade compounds were used with the trademark identifying the source. […] In each experiment, the low dose was equivalent to the daily human therapeutic dose."}, "[2]": {"biological_target": "T1, rat liver proteins (Rattus norvegicus, UniProt P55260)", "T1 construct": "The 2DGE protein pattern of rat liver illustrates over 1000 Coomassie Blue stained protein spots; from tissue; host or cells: liver (left apical lobe) of drug-fed F344 rats", "T1 sequence (P55260 1-319)": "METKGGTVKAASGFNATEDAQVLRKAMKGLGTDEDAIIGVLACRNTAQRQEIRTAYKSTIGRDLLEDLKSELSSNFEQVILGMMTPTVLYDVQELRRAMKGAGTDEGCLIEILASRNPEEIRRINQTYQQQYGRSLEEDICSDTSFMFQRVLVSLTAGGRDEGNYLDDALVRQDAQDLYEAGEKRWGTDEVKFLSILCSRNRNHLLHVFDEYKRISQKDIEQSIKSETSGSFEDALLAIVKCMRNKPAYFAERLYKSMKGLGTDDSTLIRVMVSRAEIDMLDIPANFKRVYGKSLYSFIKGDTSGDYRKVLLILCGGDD", "test": "Proteome analysis (2-D gel electrophoresis) of liver of rats fed antilipemic drugs at low and high dose for 7 days (Examples 1-3)", "type": "in vivo", "conditions": "rat liver", "description": "as §1, §2, §3, §4, §5"}, "[3]": {"biological_target": "T2, rat liver proteins (Rattus norvegicus, UniProt P31044)", "T2 construct": "The 2DGE protein pattern of rat liver illustrates over 1000 Coomassie Blue stained protein spots; from tissue; host or cells: liver (left apical lobe) of drug-fed F344 rats", "T2 sequence (P31044 1-187)": "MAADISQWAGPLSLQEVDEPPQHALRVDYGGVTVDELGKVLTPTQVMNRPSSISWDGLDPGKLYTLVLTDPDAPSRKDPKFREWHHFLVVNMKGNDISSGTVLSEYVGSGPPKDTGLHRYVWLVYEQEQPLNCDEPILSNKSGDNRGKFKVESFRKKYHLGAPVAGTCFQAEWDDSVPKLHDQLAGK", "test": "Proteome analysis (2-D gel electrophoresis) of liver of rats fed antilipemic drugs at low and high dose for 7 days (Examples 1-3)", "type": "in vivo", "conditions": "rat liver", "description": "as §1, §2, §3, §4, §5"}, "[4]": {"biological_target": "T3, rat liver proteins (Rattus norvegicus, UniProt P05545)", "T3 construct": "The 2DGE protein pattern of rat liver illustrates over 1000 Coomassie Blue stained protein spots; from tissue; host or cells: liver (left apical lobe) of drug-fed F344 rats", "T3 sequence (P05545 21-416)": "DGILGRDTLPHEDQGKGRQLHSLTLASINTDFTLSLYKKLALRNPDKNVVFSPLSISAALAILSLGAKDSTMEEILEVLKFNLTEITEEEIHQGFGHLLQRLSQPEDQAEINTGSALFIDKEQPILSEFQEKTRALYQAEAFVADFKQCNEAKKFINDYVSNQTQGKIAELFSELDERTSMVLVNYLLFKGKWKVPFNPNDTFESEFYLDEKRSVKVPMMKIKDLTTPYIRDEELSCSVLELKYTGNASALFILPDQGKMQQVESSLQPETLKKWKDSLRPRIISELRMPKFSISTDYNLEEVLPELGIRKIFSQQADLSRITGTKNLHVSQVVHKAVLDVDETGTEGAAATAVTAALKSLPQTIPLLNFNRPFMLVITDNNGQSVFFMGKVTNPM", "test": "Proteome analysis (2-D gel electrophoresis) of liver of rats fed antilipemic drugs at low and high dose for 7 days (Examples 1-3)", "type": "in vivo", "conditions": "rat liver, high doses", "description": "as §1, §2, §3, §4, §5"}, "[5]": {"test": "Weight gain of treated rats", "type": "in vivo, rat", "conditions": "high doses"}, "[6]": {"conditions": "rat liver, 1500 ppm in feed for 7 days"}}}
{"smiles": "CC[C@H](C)C(=O)O[C@H]1C[C@@H](C)C=C2C=C[C@H](C)[C@H](CC[C@@H]3C[C@@H](O)CC(=O)O3)[C@H]21", "note": "[Mevacor ®, lovastatin]", "values": [{"measurement": "protein abundance changes in liver at low dose", "setting": "[1]; 16 ppm in feed for 7 days", "value": "not of statistical significance"}, {"measurement": "protein kinase C inhibitor abundance", "setting": "[1]; rat liver", "value": "increased"}, {"measurement": "number of hepatic proteins with altered abundance, p<0.001", "setting": "[1]; [6]", "value": 32}, {"measurement": "number of liver proteins with altered abundance, p<0.0001", "setting": "[1]; [6]", "value": 8}, {"measurement": "number of liver proteins with altered abundance, p<0.005", "setting": "[1]; [6]", "value": 64}, {"measurement": "number of lost liver proteins", "setting": "[1]; [6]", "value": "one"}, {"measurement": "number of new liver proteins", "setting": "[1]; [6]", "value": 1}, {"measurement": "number of liver proteins with altered abundance (total)", "setting": "[1]; rat liver, two-tailed Student's t-test, 1500 ppm in feed for 7 days", "value": 66}, {"measurement": "annexin IV abundance", "setting": "[2]", "value": "dose-dependent increase"}, {"measurement": "23 kD morphine binding protein abundance", "setting": "[3]", "value": "increased"}, {"measurement": "serine protease inhibitor 2 (SPI-2) abundance", "setting": "[4]", "value": "decrease"}, {"measurement": "weight gain", "setting": "[5]", "value": "decrease"}]}
